Assay results reported in ChEMBL document CHEMBL1201861, “Genomics of Drug Sensitity in Cancer screening data, Wellcome Trust Sanger Institute”.

Assays:
Assay in all cases: cells
CP66-MEL = type: functional, cell-based, Homo sapiens; settings: Homo sapiens, CP66-MEL;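 further: growth inhibition of CP66-MEL cells determined in a cell viability assay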
Description: SANGER: Inhibition of human CP66-MEL cell growth in a cell viability assay.

D-263MG = type: functional, cell-based, Homo sapiens; settings: Homo sapiens, D-263MG
Description: SANGER: Inhibition of human D-263MG cell growth in a cell viability assay.

D-392MG = type: functional, cell-based, Homo sapiens; settings: Homo sapiens, D-392MG
DEL = type: functional, cell-based; settings: Homo sapiens;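 further: growth inhibition of the human DEL cell line, read out with a cell viability assay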
Description: SANGER: Inhibition of human DEL cell growth in a cell viability assay.

EC-GI-10 = type: functional, cell-based, Homo sapiens; settings: Homo sapiens, EC-GI-10
Description: SANGER: Inhibition of human EC-GI-10 cell growth in a cell viability assay.

EKVX = type: functional, cell-based, Homo sapiens; settings: Homo sapiens, EKVX;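 further: growth inhibition of human EKVX cells, read out with a cell viability assay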
Description: SANGER: Inhibition of human EKVX cell growth in a cell viability assay.

GI-1 = type: functional, cell-based, Homo sapiens; settings: Homo sapiens, GI-1
Description: SANGER: Inhibition of human GI-1 cell growth in a cell viability assay.

HC-1 = type: functional, cell-based; settings: Homo sapiens;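 further: growth inhibition of HC-1 cells measured by a cell viability assay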
Description: SANGER: Inhibition of human HC-1 cell growth in a cell viability assay.

HCE-T = type: functional, cell-based, Homo sapiens; settings: Homo sapiens, HCE-T;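 further: cell viability assay read-out, reporting inhibition of HCE-T cell growth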
Description: SANGER: Inhibition of human HCE-T cell growth in a cell viability assay.

HD-MY-Z = type: functional, cell-based, Homo sapiens; settings: Homo sapiens, HD-MY-Z;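 further: growth inhibition of HD-MY-Z cells, read out with a cell viability assay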
Description: SANGER: Inhibition of human HD-MY-Z cell growth in a cell viability assay.

JVM-3 = type: functional, cell-based; settings: Homo sapiens;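 further: growth inhibition of human JVM-3 cells, read out with a cell viability assay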
Description: SANGER: Inhibition of human JVM-3 cell growth in a cell viability assay.

KP-N-YS = type: functional, cell-based; settings: Homo sapiens;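 further: cell viability assay measuring inhibition of cell line growth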
Description: SANGER: Inhibition of human KP-N-YS cell growth in a cell viability assay.

MMAC-SF = type: functional, cell-based, Homo sapiens; settings: Homo sapiens, MMAC-SF;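 further: growth inhibition of human MMAC-SF cells, read out with a cell viability assay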
Description: SANGER: Inhibition of human MMAC-SF cell growth in a cell viability assay.

MN-60 = type: functional, cell-based; settings: Homo sapiens;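 further: growth inhibition of the MN-60 cell line, determined with a cell viability assay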
Description: SANGER: Inhibition of human MN-60 cell growth in a cell viability assay.

MOLT-4 = type: functional, cell-based; settings: Homo sapiens;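 further: growth inhibition of MOLT-4 cells, determined with a cell viability readout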
Description: SANGER: Inhibition of human MOLT-4 cell growth in a cell viability assay.

MS-1 = type: functional, cell-based; settings: Homo sapiens;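 further: growth inhibition of MS-1 cells, read out by cell viability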
Description: SANGER: Inhibition of human MS-1 cell growth in a cell viability assay.

Mo = type: functional, cell-based; settings: Homo sapiens
Description: SANGER: Inhibition of human Mo-T cell growth in a cell viability assay.

NB12 = type: functional, cell-based, Homo sapiens; settings: Homo sapiens, NB12;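 further: growth inhibition of human NB12 cells, read out by a cell viability assay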
Description: SANGER: Inhibition of human NB12 cell growth in a cell viability assay.

NCI-H446 = type: functional, cell-based; settings: Homo sapiens;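 further: growth inhibition of NCI-H446 cells determined by a cell viability assay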
Description: SANGER: Inhibition of human NCI-H446 cell growth in a cell viability assay.

NCI-H69 = type: functional, cell-based; settings: Homo sapiens;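 further: growth inhibition of the cell line, read out with a cell viability assay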
Description: SANGER: Inhibition of human NCI-H69 cell growth in a cell viability assay.

NH-12 = type: functional, cell-based, Homo sapiens; settings: Homo sapiens, NH-12;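 further: growth inhibition of NH-12 cells, read out with a cell viability assay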
Description: SANGER: Inhibition of human NH-12 cell growth in a cell viability assay.

OCI-AML2 = type: functional, cell-based; settings: Homo sapiens;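 further: growth inhibition of OCI-AML2 cells, read out with a cell viability assay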
Description: SANGER: Inhibition of human OCI-AML2 cell growth in a cell viability assay.

P30-OHK = type: functional, cell-based; settings: Homo sapiens;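 further: growth inhibition of the P30-OHK cell line, read out with a cell viability assay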
Description: SANGER: Inhibition of human P30-OHK cell growth in a cell viability assay.

SHP77 = type: functional, cell-based, Homo sapiens, SHP-77; settings: Homo sapiens, SHP77;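 further: growth inhibition of human SHP-77 cells measured by a cell viability assay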
Description: SANGER: Inhibition of human SHP-77 cell growth in a cell viability assay.

SK-N-DZ = type: functional, cell-based, Homo sapiens; settings: Homo sapiens, SK-N-DZ;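 further: growth inhibition of the cancer cell line, read out through a viability assay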
Description: SANGER: Inhibition of human SK-N-DZ cell growth in a cell viability assay.

SW872 = type: functional, cell-based, Homo sapiens; settings: Homo sapiens, SW872;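 further: growth inhibition of SW872 cells, read out by a viability assay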
Description: SANGER: Inhibition of human SW872 cell growth in a cell viability assay.

697 = type: functional, cell-based; settings: Homo sapiens
Description: SANGER: Inhibition of human 697 cell growth in a cell viability assay.

ACN = type: functional, cell-based, Homo sapiens; settings: Homo sapiens, ACN;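 further: growth inhibition of the human ACN cell line, read out via cell viability testing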
Description: SANGER: Inhibition of human ACN cell growth in a cell viability assay.

CGTH-W-1 = type: functional, cell-based, Homo sapiens; settings: Homo sapiens, CGTH-W-1;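 further: growth inhibition of human CGTH-W-1 cells measured by cell viability assay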
Description: SANGER: Inhibition of human CGTH-W-1 cell growth in a cell viability assay.

COLO-684 = type: functional, cell-based; settings: Homo sapiens
Description: SANGER: Inhibition of human COLO-684 cell growth in a cell viability assay.

NCI-H1299 = type: functional, cell-based, Homo sapiens; settings: Homo sapiens, NCI-H1299;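 further: growth inhibition of human NCI-H1299 cells, read out by a cell viability assay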
Description: SANGER: Inhibition of human NCI-H1299 cell growth in a cell viability assay.

Row | Structure (SMILES) | IC50 (CP66-MEL) [nM] | IC50 (D-263MG) [nM] | IC50 (DEL) [nM] | IC50 (EC-GI-10) [nM] | IC50 (EKVX) [nM] | IC50 (GI-1) [nM] | IC50 (HC-1) [nM] | IC50 (HCE-T) [nM] | IC50 (HD-MY-Z) [nM] | IC50 (JVM-3) [nM] | IC50 (KP-N-YS) [nM] | IC50 (MMAC-SF) [nM] | IC50 (MN-60) [nM] | IC50 (MOLT-4) [nM] | IC50 (MS-1) [nM] | IC50 (Mo) [nM] | IC50 (NCI-H446) [nM] | IC50 (NCI-H69) [nM] | IC50 (NH-12) [nM] | IC50 (OCI-AML2) [nM] | also measured
1 | O=C(/C=C/c1ccccc1)NC(NC(=S)Nc1cccc2cccnc12)C(Cl)(Cl)Cl (centres undefined) [SALUBRINAL] | > 16000 | > 16000 | > 16000 | > 16000 | > 16000 | > 16000 | 11200 | > 16000 | > 16000 | > 16000 | > 16000 | > 16000 | > 16000 | > 16000 | > 16000 | > 16000 | > 16000 | > 16000 | > 16000 | 15900 | IC50 (D-392MG): > 16000 nM; IC50 (NB12): > 16000 nM; IC50 (P30-OHK): > 16000 nM; IC50 (SHP77): > 16000 nM; IC50 (SK-N-DZ): > 16000 nM; IC50 (SW872): > 16000 nM; IC50 697: 3990 nM; IC50 (ACN): > 16000 nM; IC50 (CGTH-W-1): > 16000 nM; IC50 (COLO-684): > 16000 nM
2 | CN1CCN(CCOc2cc(OC3CCOCC3)c3c(Nc4c(Cl)ccc5c4OCO5)ncnc3c2)CC1 [SARACATINIB] | > 2000 | > 2000 | > 2000 | > 2000 | > 2000 | > 2000 | > 2000 | > 2000 | > 2000 | > 2000 | > 2000 | > 2000 | > 2000 | > 2000 | > 2000 | > 2000 | > 2000 | > 2000 | > 2000 | > 2000 | IC50 (NCI-H1299): > 2000 nM; IC50 (P30-OHK): > 2000 nM; IC50 (SHP77): > 2000 nM; IC50 (SK-N-DZ): 1850 nM; IC50 (SW872): > 2000 nM; IC50 697: > 2000 nM; IC50 (ACN): > 2000 nM; IC50 (CGTH-W-1): > 2000 nM; IC50 (COLO-684): > 2000 nM
3 | CO[C@H]1C[C@@H]2CC[C@@H](C)[C@@](O)(O2)C(=O)C(=O)N2CCCC[C@H]2C(=O)O[C@H]([C@H](C)C[C@@H]2CC[C@@H](O)[C@H](OC)C2)CC(=O)[C@H](C)/C=C(\C)[C@@H](O)[C@@H](OC)C(=O)[C@H](C)C[C@H](C)/C=C/C=C/C=C/1C [SIROLIMUS] | > 100 | > 100 | 18 | > 100 | > 100 | 70.4 | > 100 | > 100 | > 100 | > 100 | > 100 | > 100 | > 100 | 96.8 | > 100 | > 100 | > 100 | > 100 | > 100 | > 100 | IC50 (NCI-H1299): > 100 nM; IC50 (P30-OHK): > 100 nM; IC50 (SHP77): > 100 nM; IC50 (SK-N-DZ): > 100 nM; IC50 (SW872): 0.846 nM; IC50 697: 6.28 nM; IC50 (ACN): > 100 nM; IC50 (CGTH-W-1): > 100 nM; IC50 (COLO-684): 39.8 nM
4 | CCC(=O)N1CCN(c2ccc(-n3c(=O)ccc4cnc5ccc(-c6cnc7ccccc7c6)cc5c43)cc2C(F)(F)F)CC1 [TORIN1] | 314 | 661 | 28.1 | > 1200 | 445 | 24.7 | 58.3 | 109 | 24.3 | > 1200 | > 1200 | 26.3 | 299 | 66.1 | 402 | > 1200 | 169 | 502 | > 1200 | 28.7 | IC50 (P30-OHK): > 1200 nM; IC50 (SHP77): > 1200 nM; IC50 (SK-N-DZ): 147 nM; IC50 (SW872): 22.5 nM; IC50 697: 6.34 nM; IC50 (ACN): 15 nM; IC50 (CGTH-W-1): 184 nM; IC50 (COLO-684): 45.6 nM
5 | Cc1cc(Nc2cc(N3CCN(C)CC3)nc(Sc3ccc(NC(=O)C4CC4)cc3)n2)n[nH]1 [TOZASERTIB] | > 2000 | > 2000 | 1260 | > 2000 | > 2000 | > 2000 | > 2000 | > 2000 | > 2000 | > 2000 | 544 | > 2000 | > 2000 | 233 | > 2000 | > 2000 | > 2000 | > 2000 | > 2000 | 644 | IC50 (P30-OHK): > 2000 nM; IC50 (SHP77): > 2000 nM; IC50 (SK-N-DZ): 962 nM; IC50 (SW872): > 2000 nM; IC50 697: 24.7 nM; IC50 (ACN): > 2000 nM; IC50 (CGTH-W-1): > 2000 nM; IC50 (COLO-684): > 2000 nM
